Patent US11427548B2 (Arvinas Operations, Inc., priority 2015, dated 2022)
Like-named read-outs stand apart in the source and are kept apart here.

Target: T1, Androgen Receptor (Homo sapiens, UniProt P10275)
T1 construct: endogenous in cells; host or cells: VCaP cells
T1 sequence (P10275 1-920): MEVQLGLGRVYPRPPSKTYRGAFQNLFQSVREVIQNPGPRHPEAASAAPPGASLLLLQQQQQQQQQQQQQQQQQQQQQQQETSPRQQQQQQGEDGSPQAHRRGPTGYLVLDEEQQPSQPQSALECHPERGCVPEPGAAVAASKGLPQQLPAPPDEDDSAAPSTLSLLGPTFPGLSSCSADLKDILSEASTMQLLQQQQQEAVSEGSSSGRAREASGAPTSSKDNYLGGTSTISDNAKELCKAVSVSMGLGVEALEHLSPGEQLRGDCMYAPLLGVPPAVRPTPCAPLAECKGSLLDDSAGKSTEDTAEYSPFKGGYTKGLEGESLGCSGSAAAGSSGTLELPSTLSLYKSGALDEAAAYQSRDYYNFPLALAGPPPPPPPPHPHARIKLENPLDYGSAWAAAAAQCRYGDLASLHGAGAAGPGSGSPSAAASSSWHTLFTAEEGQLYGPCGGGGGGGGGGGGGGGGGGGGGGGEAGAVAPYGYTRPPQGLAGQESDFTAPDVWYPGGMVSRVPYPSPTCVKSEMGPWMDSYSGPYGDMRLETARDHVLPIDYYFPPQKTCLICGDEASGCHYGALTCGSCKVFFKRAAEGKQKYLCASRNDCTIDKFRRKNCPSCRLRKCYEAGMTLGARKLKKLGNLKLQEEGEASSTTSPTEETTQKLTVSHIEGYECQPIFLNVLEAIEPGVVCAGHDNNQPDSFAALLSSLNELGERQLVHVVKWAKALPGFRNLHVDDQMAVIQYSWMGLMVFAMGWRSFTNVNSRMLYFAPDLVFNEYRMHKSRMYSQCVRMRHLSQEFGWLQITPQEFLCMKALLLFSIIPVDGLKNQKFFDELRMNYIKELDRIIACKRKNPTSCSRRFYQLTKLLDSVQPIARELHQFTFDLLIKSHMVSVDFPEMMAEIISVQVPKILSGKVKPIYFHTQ
Assay: Androgen Receptor ELISA assay (PathScan AR ELISA) in VCaP cells: AR degradation, Dmax and DC50
Assay type: cell-based
Summary of the method: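 VCaP cells, 30,000/well, grown ≥3 days in phenol red-free RPMI with 5% charcoal-stripped FBS; compound added in 0.1% DMSO with 0.1 nM R1881, 7 half-log doses, 24 h. Lysate AR quantified by PathScan sandwich ELISA, HRP/TMB read at 450 nm, giving DC50 and Dmax.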

[1] = VCaP cells; Table 36; read-out: VCaP DC50
[2] = VCaP, VCaP cells; Table 36; read-out: VCaP Dmax (%)
[3] = read-out: VCaP DC50; VCaP cells; Table 36
[4] = read-out: VCaP DC50; concentration that caused 50% Androgen Receptor degradation, VCaP cells
[5] = VCaP cells; Table 35; read-out: VCaP DC50
[6] = VCaP, VCaP cells; Table 35; read-out: VCaP Dmax (%)

| DC50 [1] | Dmax [2] | SMILES | Dmax (VCaP, read-out: VCaP Dmax (%)) | other results |
| --- | --- | --- | --- | --- |
| < 50 nM | > 71% | Cc1ncsc1-c1ccc([C@H](C)NC(=O)C2C[C@@H](O)CN2C(=O)[C@@H](NC(=O)COCCN2[C@H](C)CN(c3ccc(C(=O)N[C@H]4C(C)(C)[C@H](Oc5ccc(C#N)c(Cl)c5)C4(C)C)cn3)C[C@@H]2C)C(C)(C)C)cc1 (stereo partly drawn) [Example 786, N-((1r,3R)-3-(3-chloro-4-cyanophenoxy)-2,2,4,4-tetramethylcyclobutyl)-6-((3S,5R)-4-(2-(2-(((2S)-1-((4R)-4-hydroxy-2-(((S)-1-(4-(4-methylthiazol-5-yl)phenyl)ethyl)carbamoyl)pyrrolidin-1-yl)-3,3-dimethyl-1-oxobutan-2-yl)amino)-2-oxoethoxy)ethyl)-3,5-dimethylpiperazin-1-yl)nicotinamide] | – | – |
| < 50 nM | > 71% | Cc1ncsc1-c1ccc([C@H](C)NC(=O)[C@@H]2C[C@@H](O)CN2C(=O)[C@@H](NC(=O)COCCN2CCN(c3cnc(C(=O)N[C@H]4C(C)(C)[C@H](Oc5ccc(C#N)c(C(F)(F)F)c5)C4(C)C)cn3)CC2)C(C)(C)C)cc1 [Example 689, N-((1r,3r)-3-(4-cyano-3-(trifluoromethyl)phenoxy)-2,2,4,4-tetramethylcyclobutyl)-5-(4-(2-(2-(((S)-1-((2S,4R)-4-hydroxy-2-(((S)-1-(4-(4-methylthiazol-5-yl)phenyl)ethyl)carbam-oyl)pyrrolidin-1-yl)-3,3-dimethyl-1-oxobutan-2-yl)amino)-2-oxoethoxy)ethyl)pipera-zin-1-yl)pyrazine-2-carboxamide] | – | – |

The remaining lines, values behind:

| SMILES | DC50 [1] | Dmax [2] | Dmax (VCaP, read-out: VCaP Dmax (%)) | other results |
| --- | --- | --- | --- | --- |
| Cc1ncsc1-c1ccc(C(CO)NC(=O)[C@@H]2C[C@@H](O)CN2C(=O)[C@@H](NC(=O)CCCN2CCN(c3ccc(C(=O)N[C@H]4C(C)(C)[C@H](Oc5ccc(C#N)c(Cl)c5)C4(C)C)cn3)CC2)C(C)(C)C)cc1 (stereo partly drawn) [Example 781, N-((1r,3r)-3-(3-chloro-4-cyanophenoxy)-2,2,4,4-tetramethylcyclobutyl)-6-(4-(4-(((S)-1-((2S,4R)-4-hydroxy-2-(((R)-2-hydroxy-1-(4-(4-methylthiazol-5-yl)phenyl)ethyl)carbamoyl)pyrrolidin-1-yl)-3,3-dimethyl-1-oxobutan-2-yl)amino)-4-oxobutyl)piperazin-1-yl)nicotinamide] | > 501 nM | 26 to 50% | – | – |
| Cc1ncsc1-c1ccc([C@H](C)NC(=O)[C@@H]2C[C@@H](O)CN2C(=O)[C@H](C(C)C)n2cc(-c3ccnc(N4CC[C@H](Oc5ccc(N6C(=S)N(c7ccc(C#N)c(C(F)(F)F)c7)C(=O)C6(C)C)cc5)C4)c3)cn2)cc1 [Example 609] | – | – | < 25% | DC50 [3]: > 501 nM |
| Cc1ncsc1-c1ccc(CNC(=O)[C@@H]2C[C@@H](O)CN2C(=O)[C@@H](NC(=O)COCCCCOCCCCOc2ccc(N3C(=S)N(c4ccc(C#N)c(C(F)(F)F)c4)C(=O)C3(C)C)cc2F)C(C)(C)C)cc1 [Example 26, (2S,4R)-1-[(2S)-2-(2-{4-[4-(4-{3-[4-cyano-3-(trifluoromethyl)phenyl]-5,5-dimethyl-4-oxo-2-sulfanylideneimidazolidin-1-yl}-2-fluorophenoxy)butoxy]butoxy}acetamido)-3,3-dimethylbutanoyl]-4-hydroxy-N-{[4-(4-methyl-1,3-thiazol-5-yl)phenyl]methyl}pyrrolidine-2-carboxamide] | – | – | 51 to 70% | DC50 [4]: < 50 nM |
| CC(C)(C)[C@H](NC(=O)COCCCCCNc1ccc(C(=O)N[C@H]2C(C)(C)[C@H](Oc3ccc(C#N)c(Cl)c3)C2(C)C)cc1)C(=O)N1C[C@H](O)C[C@H]1C(=O)NCc1ccc(-c2nnc[nH]2)cc1 [Example 528] | – | – | – | DC50 [5]: < 50 nM; Dmax [6]: 51 to 70% |
| CC(C)(C)[C@H](NC(=O)COCCCOCCCCOc1ccc(N2C(=S)N(c3ccc(C#N)c(Cl)c3)C(=O)C2(C)C)cc1F)C(=O)N1C[C@H](O)C[C@H]1C(=O)NCc1ccc(-c2cncs2)cc1 [Example 46, (2S,4R)-1-[(2S)-2-{2-[3-(4-{4-[3-(3-chloro-4-cyanophenyl)-5,5-dimethyl-4-oxo-2-sulfanylideneimidazolidin-1-yl]-2-fluorophenoxy}butoxy)propoxy]acetamido}-3,3-dimethylbutanoyl]-4-hydroxy-N-{[4-(1,3-thiazol-5-yl)phenyl]methyl}pyrrolidine-2-carboxamide] | – | – | > 71% | DC50 [4]: < 50 nM |
| Cc1ncsc1-c1ccc(CNC(=O)[C@@H]2C[C@@H](O)CN2C(=O)[C@@H](NC(=O)COCC2CCN(c3ccc(C(=O)N[C@H]4C(C)(C)[C@H](Oc5ccc(C#N)c(Cl)c5)C4(C)C)cc3)CC2)C(C)(C)C)cc1 [Example 410] | – | – | – | DC50 (VCaP cells; Table 34; read-out: VCaP DC50): < 50 nM; Dmax (VCaP, VCaP cells; Table 34; read-out: VCaP Dmax (%)): > 71% |
| Cc1ncsc1-c1ccc([C@H](CO)NC(=O)C2C[C@@H](O)CN2C(=O)C(NC(=O)CN2C3CCC2CN(CCCc2ccc(C(=O)NC4C(C)(C)C(Oc5ccc(C#N)c(Cl)c5)C4(C)C)cc2)C3)C(C)(C)C)cc1 (stereo partly drawn) [Example 828, (2S,4R)-1-((2S)-2-(2-(3-(3-(4-(((1r,3r)-3-(3-chloro-4-cyanophenoxy)-2,2,4,4-tetramethylcyclobutyl)carbamoyl)phenyl)propyl)-3,8-diazabicyclo[3.2.1]octan-8-yl)acetamido)-3,3-dimethylbutanoyl)-4-hydroxy-N-((R)-2-hydroxy-1-(4-(4-methylthiazol-5-yl)phenyl)ethyl) pyrrolidine-2-carboxamide] | – | – | > 71% | DC50 [3]: < 50 nM |
| Cc1ncsc1-c1ccc([C@H](C)NC(=O)[C@@H]2C[C@@H](O)CN2C(=O)[C@@H](NC(=O)CCCC/C(CCCc2ccc(C(=O)N[C@H]3C(C)(C)[C@H](Oc4ccc(C#N)c(Cl)c4)C3(C)C)nc2)=N\O)C(C)(C)C)cc1 [Example 693, N-((1r,3r)-3-(3-chloro-4-cyanophenoxy)-2,2,4,4-tetramethylcyclobutyl)-5-((E)-9-(((S)-1-((2S,4R)-4-hydroxy-2-(((S)-1-(4-(4-methylthiazol-5-yl)phenyl)ethyl)carbam-oyl)pyrrolidin-1-yl)-3,3-dimethyl-1-oxobutan-2-yl)amino)-4-(hydroxyimino)-9-oxononyl)picolinamide] | < 50 nM | 26 to 50% | – | – |
| Cc1ncsc1-c1ccc([C@H](C)NC(=O)C2C[C@@H](O)CN2C(=O)[C@@H](NC(=O)CN2CCN(CCC3(c4ccc(C(=O)N[C@H]5C(C)(C)[C@H](Oc6ccc(C#N)c(C(F)(F)F)c6)C5(C)C)cc4)COC3)CC2)C(C)(C)C)cc1 (stereo partly drawn) [Example 674, (2S,4R)-1-((S)-2-(2-(4-(2-(3-(4-(((1r,3r)-3-(4-cyano-3-(trifluoromethyl)phenoxy)-2,2,4,4-tetramethylcyclobutyl)carbamoyl)phenyl)oxetan-3-yl)ethyl)piperazin-1-yl)acetamido)-3,3-dimethylbutanoyl)-4-hydroxy-N-((S)-1-(4-(4-methylthiazol-5-yl)phenyl)ethyl)pyrrolidine-2-carboxamide] | < 50 nM | – | 51 to 70% | – |
| CC(C)(C)[C@H](NC(=O)COCCCCCNc1ccc(C(=O)N[C@H]2C(C)(C)[C@H](Oc3ccc(C#N)c(Cl)c3)C2(C)C)cc1)C(=O)N1C[C@H](O)C[C@H]1C(=O)NCc1ccc(-c2scnc2N)cc1 [Example 503] | – | – | – | DC50 [5]: < 50 nM; Dmax [6]: > 71% |
